pIC50: −log10 of the molar value.
Test system: LG0567-F671-PDC KRAS tumor spheroid viability
Assay: Anticancer human tumor LG0567-F671-PDC patient-derived lung adenocarcinoma cell line growth inhibition [KRAS2]
Conditions: spheroids with HUVEC and MSC; for viability, T/C: stronger effect = lower value
In short: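 KRAS-mutant tumor cells were grown as spheroids with HUVEC endothelial cells and human MSCs as stroma. Targeted agents were tested alone and with KRAS pathway inhibitors. Doses started at or near clinical Cmax, or 10 microM, descending half-log.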

[1] = curve of first compound, second compound 0.1 µM
[2] = curve of first compound, second compound 0.316 µM
[3] = curve of first compound, second compound 1 µM
[4] = curve of first compound, second compound 3.16 µM
[5] = curve of first compound, second compound 10 µM
[6] = second compound 0.1 µM, first compound 0.01 µM
[7] = second compound 0.1 µM, first compound 0.0316 µM
[8] = second compound 0.1 µM, first compound 0.1 µM
[9] = second compound 0.1 µM, first compound 0.316 µM
[10] = second compound 0.1 µM, first compound 1 µM
[11] = second compound 0.1 µM, first compound 3.16 µM
[12] = second compound 0.316 µM, first compound 0.01 µM
[13] = second compound 0.316 µM, first compound 0.0316 µM
[14] = second compound 0.316 µM, first compound 0.1 µM
[15] = second compound 0.316 µM, first compound 0.316 µM
[16] = second compound 0.316 µM, first compound 1 µM
[17] = second compound 0.316 µM, first compound 3.16 µM
[18] = second compound 1 µM, first compound 0.01 µM
[19] = second compound 1 µM, first compound 0.0316 µM
[20] = second compound 1 µM, first compound 0.1 µM
[21] = second compound 1 µM, first compound 0.316 µM
[22] = second compound 1 µM, first compound 1 µM
[23] = second compound 1 µM, first compound 3.16 µM
[24] = second compound 3.16 µM, first compound 0.01 µM
[25] = second compound 3.16 µM, first compound 0.0316 µM
[26] = second compound 3.16 µM, first compound 0.1 µM
[27] = second compound 3.16 µM, first compound 0.316 µM
[28] = second compound 3.16 µM, first compound 1 µM
[29] = second compound 3.16 µM, first compound 3.16 µM
[30] = second compound 10 µM, first compound 0.01 µM
[31] = second compound 10 µM, first compound 0.0316 µM
[32] = second compound 10 µM, first compound 0.1 µM
[33] = second compound 10 µM, first compound 0.316 µM
[34] = second compound 10 µM, first compound 1 µM
[35] = second compound 10 µM, first compound 3.16 µM
[36] = second compound 0.1 µM, first compound 0.000316 µM
[37] = second compound 0.1 µM, first compound 0.001 µM
[38] = second compound 0.1 µM, first compound 0.00316 µM
[39] = second compound 0.316 µM, first compound 0.000316 µM
[40] = second compound 0.316 µM, first compound 0.001 µM
[41] = second compound 0.316 µM, first compound 0.00316 µM
[42] = second compound 1 µM, first compound 0.000316 µM
[43] = second compound 1 µM, first compound 0.001 µM
[44] = second compound 1 µM, first compound 0.00316 µM
[45] = second compound 3.16 µM, first compound 0.000316 µM
[46] = second compound 3.16 µM, first compound 0.001 µM
[47] = second compound 3.16 µM, first compound 0.00316 µM
[48] = second compound 10 µM, first compound 0.000316 µM
[49] = second compound 10 µM, first compound 0.001 µM
[50] = second compound 10 µM, first compound 0.00316 µM
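Further: drug exposure lasted seven days after spheroids formed for three days.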
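Wherever viability, T/C is given: 100% = DMSO vehicle control viability.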

Structure (SMILES) | pIC50 [1] | pIC50 [2] | pIC50 [3] | pIC50 [4] | pIC50 [5] | viability, T/C [6] [%] | viability, T/C [7] [%] | viability, T/C [8] [%] | viability, T/C [12] [%] | viability, T/C [13] [%] | viability, T/C [14] [%] | viability, T/C [18] [%] | viability, T/C [19] [%] | viability, T/C [20] [%] | viability, T/C [24] [%] | viability, T/C [25] [%] | viability, T/C [26] [%] | viability, T/C [30] [%] | viability, T/C [31] [%] | viability, T/C [32] [%] | also measured
CC(=O)OC12COC1CC(O)C1(C)C(=O)C(O)C3=C(C)C(OC(=O)C(O)C(NC(=O)OC(C)(C)C)c4ccccc4)CC(O)(C(OC(=O)c4ccccc4)C21)C3(C)C (stereo not drawn) + COc1cc2nc(C)nc(NC(C)c3cc(N)cc(C(F)(F)F)c3)c2cc1OC1CCOC1 | < 5.50 | > 8.00 | < 5.50 | > 8.00 | < 5.50 | 55.8 | 52.6 | 53.9 | 48.6 | 40 | 52.4 | 54.9 | 69.2 | 69.7 | 50.5 | 46.9 | 56.3 | 62.7 | 58.1 | 53.8 | viability, T/C [9]: 57.9%; viability, T/C [10]: 72.3%; viability, T/C [11]: 58.7%; viability, T/C [15]: 45.4%; viability, T/C [16]: 51%; viability, T/C [17]: 47.6%; viability, T/C [21]: 70.5%; viability, T/C [22]: 78.8%; viability, T/C [23]: 50.3%; viability, T/C [27]: 48.9%; viability, T/C [28]: 57.1%; viability, T/C [29]: 59.1%; viability, T/C [33]: 54.6%; viability, T/C [34]: 64.4%; viability, T/C [35]: 62.2%
COc1cc2nccc(Oc3ccc(NC(=O)C4(C(=O)Nc5ccc(F)cc5)CC4)cc3)c2cc1OC + CNCc1ccccc1-c1csc(C(C)Nc2nc(C)nc3cc(OC)c(OC)cc23)c1 | < 5.00 | 6.27 | 6.71 | > 7.50 | > 7.50 | – | 78.2 | 66.5 | – | 65.8 | 58.8 | – | 55 | 58.2 | – | 0.31 | 0.25 | – | 0.63 | 0.38 | viability, T/C [9]: 56.8%; viability, T/C [10]: 49.6%; viability, T/C [11]: 33.1%; viability, T/C (second compound 0.1 µM, first compound 10 µM): 88.5%; viability, T/C [15]: 51.8%; viability, T/C [16]: 39.6%; viability, T/C [17]: 27.2%; viability, T/C (second compound 0.316 µM, first compound 10 µM): 75.7%; viability, T/C [21]: 45.4%; viability, T/C [22]: 27.8%; viability, T/C [23]: 23.1%; viability, T/C (second compound 1 µM, first compound 10 µM): 38%; viability, T/C [27]: 0.87%; viability, T/C [28]: 0.11%; viability, T/C [29]: 0.21%; viability, T/C (second compound 3.16 µM, first compound 10 µM): 0.7%; viability, T/C [33]: 0.97%; viability, T/C [34]: 0.33%; viability, T/C [35]: 2.44%; viability, T/C (second compound 10 µM, first compound 10 µM): 0.91%
CN(C)C/C=C/C(=O)Nc1cc2c(Nc3ccc(F)c(Cl)c3)ncnc2cc1O[C@H]1CCOC1 + CNCc1ccccc1-c1csc(C(C)Nc2nc(C)nc3cc(OC)c(OC)cc23)c1 | 7.61 | 7.77 | 8.17 | 9.39 | > 9.50 | 49 | 46.9 | 51.3 | 52 | 43.5 | 53.1 | 48.2 | 44.2 | 37.4 | 0.13 | 0.63 | 0.28 | 0.38 | 1.14 | 0.66 | viability, T/C [36]: 88%; viability, T/C [37]: 71.5%; viability, T/C [38]: 65.5%; viability, T/C [39]: 77.9%; viability, T/C [40]: 72.8%; viability, T/C [41]: 59.7%; viability, T/C [42]: 54.7%; viability, T/C [43]: 61.3%; viability, T/C [44]: 49.4%; viability, T/C [45]: 54.9%; viability, T/C [46]: 31.7%; viability, T/C [47]: 0.31%; viability, T/C [48]: 0.28%; viability, T/C [49]: 0.22%; viability, T/C [50]: 0.1%
CN(C)C/C=C/C(=O)Nc1cc2c(Nc3ccc(F)c(Cl)c3)ncnc2cc1O[C@H]1CCOC1 + COc1cc2nc(C)nc(NC(C)c3cc(N)cc(C(F)(F)F)c3)c2cc1OC1CCOC1 | 7.52 | 8.37 | 7.95 | > 9.50 | > 9.50 | 51.2 | 51.6 | 48.2 | 40.8 | 45.1 | 46.2 | 53.9 | 39.8 | 49.3 | 32.1 | 29.8 | 32.1 | 24.4 | 17.8 | 22.4 | viability, T/C [36]: 88.5%; viability, T/C [37]: 68.1%; viability, T/C [38]: 56.5%; viability, T/C [39]: 69.5%; viability, T/C [40]: 60.9%; viability, T/C [41]: 54.4%; viability, T/C [42]: 85.9%; viability, T/C [43]: 66.4%; viability, T/C [44]: 57.5%; viability, T/C [45]: 45.9%; viability, T/C [46]: 43.8%; viability, T/C [47]: 36.4%; viability, T/C [48]: 39.6%; viability, T/C [49]: 35.5%; viability, T/C [50]: 27.8%
C=CC(=O)N1CCN(c2nc(=O)n(-c3c(C)ccnc3C(C)C)c3nc(-c4c(O)cccc4F)c(F)cc23)C(C)C1 (stereo not drawn) | – | – | – | – | – | – | – | – | – | – | – | – | – | – | – | – | – | – | – | – | viability, T/C (compound 0.1 µM): 25.5% [middle of 17 runs]; viability, T/C (compound 0.316 µM): 23.7% [middle of 17 runs]; viability, T/C (compound 1 µM): 25.1% [middle of 17 runs]; viability, T/C (compound 3.16 µM): 24.4% [middle of 17 runs]; viability, T/C (compound 10 µM): 23.8% [middle of 17 runs]; pIC50 (compound alone, run of 07/12/2021): > 7.00; pIC50 (compound alone, run of 07/19/2021): > 7.00; pIC50 (compound alone, run of 07/26/2021): > 7.00

— PubChem BioAssay AID1963856 (Molecular Pharmacology Branch, DTP, NCI, 2024)
